In patent publication US11980188B2, “Spiro cyclohexanedione derivates as herbicides” (SYNGENTA PARTICIPATIONS AG, priority 2018, dated 2024):

What was measured:
Test in all cases: Glasshouse herbicide test, pre- and post-emergence, percentage damage
Format in all cases: in vivo
[1] = tested on: Alopecurus myosuroides (ALOMY); conditions: 250 g/h, evaluated after 13 days, percentage damage on five point scale; for ALOMY POST: post-emergence; for ALOMY PRE: pre-emergence
Description: (§1) Seeds of a variety of test species are sown in standard soil in pots (Lolium perenne (LOLPE), Setaria faberi (SETFA), Alopecurus myosuroides (ALOMY), Echinochloa crus-galli (ECHCG), Avena fatua (AVEFA)). After cultivation for one day (pre-emergence) or after 8 days cultivation (post-emergence) under controlled conditions in a glasshouse (at 24/16° C., day/night; 14 hours light; 65% humidity), the plants are sprayed with an aqueous spray solution derived from the formulation of the technical active ingredient in acetone/water (50:50) solution containing 0.5% Tween 20 (polyoxyethelyene sorbitan monolaurate, CAS RN 9005-64-5). Compounds are applied at […]. The test plants are then grown in a glasshouse under controlled conditions in a glasshouse (at 24/16° C., day/night; 14 hours light; 65% humidity) and watered twice daily. After 13 days for pre and post-emergence, the test is evaluated for the percentage damage caused to the plant. The biological activities are shown in the following table on a five point scale (5=80-100%; 4=60-79%; 3=40-59%; 2=20-39%; 1=0-19%).

[2] = tested on: Avena fatua (AVEFA); conditions: 250 g/h, evaluated after 13 days, percentage damage on five point scale; for AVEFA POST: post-emergence; for AVEFA PRE: pre-emergence
Description: as §1

[3] = tested on: Echinochloa crus-galli (ECHCG); conditions: 250 g/h, evaluated after 13 days, percentage damage on five point scale; for ECHCG POST: post-emergence; for ECHCG PRE: pre-emergence
Description: as §1

[4] = tested on: Lolium perenne (LOLPE); conditions: 250 g/h, evaluated after 13 days, percentage damage on five point scale; for LOLPE POST: post-emergence; for LOLPE PRE: pre-emergence
Description: as §1

[5] = tested on: Setaria faberi (SETFA); conditions: 250 g/h, evaluated after 13 days, percentage damage on five point scale; for SETFA POST: post-emergence; for SETFA PRE: pre-emergence
Description: as §1

Row | SMILES | ALOMY POST [1] | ALOMY PRE [1] | AVEFA POST [2] | AVEFA PRE [2] | ECHCG POST [3] | ECHCG PRE [3] | LOLPE POST [4] | LOLPE PRE [4] | SETFA POST [5] | SETFA PRE [5]
1 | Cc1cc(-c2ccc(C#N)cn2)cc(C)c1C1C(=O)CC2(CCN(C(=O)C3CC3)CC2)CC1=O [Compound A28] | 5 (5=80-100%) | 5 (5=80-100%) | 5 (5=80-100%) | 5 (5=80-100%) | 5 (5=80-100%) | 5 (5=80-100%) | 5 (5=80-100%) | 5 (5=80-100%) | 5 (5=80-100%) | 5 (5=80-100%)
2 | Cc1cc(-c2ccc(C#N)cn2)cc(C)c1C1C(=O)CC2(CCN(C(=O)C(F)F)CC2)CC1=O [Compound A29] | 5 (5=80-100%) |  | 5 (5=80-100%) | 5 (5=80-100%) | 4 (4=60-79%) | 1 (1=0-19%) | 5 (5=80-100%) | 1 (1=0-19%) | 5 (5=80-100%) | 5 (5=80-100%)
3 | Cc1cc(-c2ccc(C#N)cn2)cc(C)c1C1C(=O)CC2(CCN(C(=O)C(C)(C)C)CC2)CC1=O [Compound A30] | 5 (5=80-100%) | 5 (5=80-100%) | 5 (5=80-100%) | 3 (3=40-59%) | 5 (5=80-100%) | 5 (5=80-100%) | 5 (5=80-100%) | 5 (5=80-100%) | 5 (5=80-100%) | 5 (5=80-100%)
4 | Cc1cc(-c2ccc(C#N)cn2)cc(C)c1C1C(=O)CC2(CCN(C(=O)NC(=O)c3ccccn3)CC2)CC1=O [Compound A31] | 5 (5=80-100%) | 1 (1=0-19%) | 5 (5=80-100%) |  | 5 (5=80-100%) | 3 (3=40-59%) | 5 (5=80-100%) | 1 (1=0-19%) | 5 (5=80-100%) | 1 (1=0-19%)
5 | CCS(=O)(=O)N1CCC2(CC1)CC(=O)C(c1c(C)cc(-c3ncc(F)cn3)cc1C)C(=O)C2 [Compound A32] | 5 (5=80-100%) | 5 (5=80-100%) | 5 (5=80-100%) | 5 (5=80-100%) | 5 (5=80-100%) | 5 (5=80-100%) | 5 (5=80-100%) | 5 (5=80-100%) | 5 (5=80-100%) | 5 (5=80-100%)
6 | Cc1cc(-c2ncc(F)cn2)cc(C)c1C1C(=O)CC2(CCN(C(=O)c3ccccc3)CC2)CC1=O [Compound A33] | 5 (5=80-100%) | 5 (5=80-100%) | 5 (5=80-100%) | 5 (5=80-100%) | 5 (5=80-100%) | 5 (5=80-100%) | 5 (5=80-100%) | 5 (5=80-100%) | 5 (5=80-100%) | 5 (5=80-100%)
7 | Cc1cc(-c2ncc(F)cn2)cc(C)c1C1C(=O)CC2(CCN(C(=O)c3ccccn3)CC2)CC1=O [Compound A34] | 5 (5=80-100%) | 5 (5=80-100%) | 5 (5=80-100%) | 5 (5=80-100%) | 5 (5=80-100%) | 5 (5=80-100%) | 5 (5=80-100%) | 5 (5=80-100%) | 5 (5=80-100%) | 5 (5=80-100%)
8 | COCC(=O)N1CCC2(CC1)CC(=O)C(c1c(C)cc(-c3ncc(F)cn3)cc1C)C(=O)C2 [Compound A35] | 5 (5=80-100%) | 5 (5=80-100%) | 5 (5=80-100%) | 5 (5=80-100%) | 5 (5=80-100%) | 5 (5=80-100%) | 5 (5=80-100%) | 5 (5=80-100%) | 5 (5=80-100%) | 5 (5=80-100%)
9 | Cc1cc(-c2ncc(F)cn2)cc(C)c1C1C(=O)CC2(CCN(C(=O)NC(C)(C)C)CC2)CC1=O [Compound A36] | 5 (5=80-100%) | 5 (5=80-100%) | 5 (5=80-100%) | 5 (5=80-100%) |  | 5 (5=80-100%) | 5 (5=80-100%) | 5 (5=80-100%) | 5 (5=80-100%) | 5 (5=80-100%)
